From patent US6699851B2, “Cytotoxic compounds and their use” (Ardenia Investments, Ltd., priority 2000, dated 2004)
Several values for one entry are separate records, joined by “and”; a condition that tells them apart may be missing. Equal values may be shown once.

Columns and labels:
[1] = test system: HeLa cell line of human cervical carcinoma; experiment: Assay of cytotoxicity: HeLa cell growth inhibition (viable cell count, trypan blue exclusion); type: cell-based; settings: compound alone; for number of living cells: three days of cultivation
Procedure: The assay of cytotoxicity of the inventive preparations was carried out on the well-known human cervical carcinoma cell line HeLa. HeLa cells were cultivated in full cultivation medium, containing 80% of Eagle Minimal Essential Medium with glutamine (Sigma), 20% of normal bovine serum, penicillin 100 IE/ml and streptomycin 100 μg/ml. HeLa cell at concentration of 10^5 cells/ml were seed in 24-well plates for adhesive cell lines (Sarstedt) in volume of 2 ml per well. HeLa cells were cultivated in CO2-incubator at temperature 37° C. in humidified atmosphere, consisting of 95% air and 5% CO2. On the next day, the experimental cultures were supplemented with solutions of the inventive preparations in normal bovine serum (NBS) in a volume of 20 μl, in order to obtain the necessary concentration for studying these in cultures. Control cultures were supplemented with normal bovine serum. After that HeLa cells were cultivated two days again at the same conditions. On the third day, HeLa cells from each cultures were harvested separately using versen. The number of viable cells was counted using tryphan blue exclusion test and a hemocytometer.
For evaluation of the cytotoxic action of these assayed preparations on HeLa cells the means value and standard errors of means of viable cell numbers were calculated. The cell growth inhibition (%) was calculated as: [formula]
The extent of cell growth inhibition caused by the assayed preparations was used for evaluation of their cytotoxicity.

[2] = test system: Ehrlich ascites carcinoma (EAC); experiment: Effect of pretreatment with compositions on antitumour action of DXR in mice with EAC; type: in vivo; settings: DXR alone (positive control) 3.5 mg/kg i.v. day 1, 3, 5, 7, day 8
Procedure: Randombred albino mice of the ICR line, female, from own rearing were used in the study. The room for animal housing is provided with filtered air at 15 changes per hour, temperature of 19-21° C., relative humidity of 50-60% and regulated light day of 12 hours with change of light and darkness at 6 h a.m. and 6 h p.m. The mice were kept in transparent polycarbonate cages with floor area of 600 cm^2 containing softwood sawdust bedding. The animals had free access to bottles with domestic quality drinking tap water and to standard feeding for growing animals ad libidum. The mice age 2-2.5 months, weighing 20-23 g were randomly distributed to the control and test groups, standardised by mean weights. The control and test groups included 15 and 12 animals respectively. Specific earmarks identified the mice from each group. […]
The mice were killed by cervical dislocation one day later after the final treatment with the test substances on day 8. Ascites fluids were removed, collected, their volumes were recorded, and abdominal cavities were washed by saline 6-7 times and both fluids were pooled. Volumes of tumour cell pellet after centrifugation at 1000 r.p.m. for 10 min were also recorded. Number of viable tumour cells was counted by haemocytometer. Means and standard errors for each of animal groups were calculated. […] Influence of the composition on EAC growth inhibition was evaluated by: [formula] […]

[3] = first series of concentrations (5.00-6.59×10^−10 mol/l final)
[4] = second series of concentrations (10.00-13.17×10^−10 mol/l final)

Compound	cell growth inhibition [1, 3] [%]	number of living cells [1, 3]	cell growth inhibition [1, 4] [%]	number of living cells [1, 4]	EAC growth inhibition [2]	number of tumour cells (EAC cells in abdominal cavity) [2]
CC1=C(/C=C/C(C)=C/C=C/C(C)=C/C(=O)N[C@@H](Cc2ccc(OP(=O)(O)O)cc2)C(=O)O)C(C)(C)CCC1 (stereo in doubt) [C11, N-(all-trans-retinoyl)-O-phospho-L-tyrosine]	17.1	376.7±24.52 ×10^3	5.2	430.8±16.37 ×10^3	–	–
CCC=CCC=CCC=CCC=CCC=CCC=CCCC(=O)NCCOP(=O)(O)O [C6, N-docosahexaenoyl-O-phospho-2-aminoethanol]	6.6	424.2±18.41 ×10^3	7.4	420.8±27.79 ×10^3	–	–
COc1cccc2c1C(=O)c1c(O)c3c(c(O)c1C2=O)C[C@@](O)(C(=O)CO)C[C@@H]3O[C@H]1C[C@H](N)[C@H](O)[C@H](C)O1 [DXR, Doxorubicin]	–	–	–	–	42.8% and 45.1% and 47.3% and 39.4% and 44.5%	525.2±74.5 ×10^6 and 436.3±51.8 ×10^6 and 614.4±60.2 ×10^6 and 542.6±50.1 ×10^6 and 534.8±39.3 ×10^6
